Results from article PMC10882719 (Frontiers in Neuroscience, 2024).
Like-named read-outs stand apart in the source and are kept apart here.

Key:
Assay type in all cases: cell-based
168 GPCRs [1] = target: T1, 168 GPCRs (Homo sapiens, UniProt P51679)
T1 construct: host or cells: PathHunter cell lines
T1 sequence (P51679 1-360): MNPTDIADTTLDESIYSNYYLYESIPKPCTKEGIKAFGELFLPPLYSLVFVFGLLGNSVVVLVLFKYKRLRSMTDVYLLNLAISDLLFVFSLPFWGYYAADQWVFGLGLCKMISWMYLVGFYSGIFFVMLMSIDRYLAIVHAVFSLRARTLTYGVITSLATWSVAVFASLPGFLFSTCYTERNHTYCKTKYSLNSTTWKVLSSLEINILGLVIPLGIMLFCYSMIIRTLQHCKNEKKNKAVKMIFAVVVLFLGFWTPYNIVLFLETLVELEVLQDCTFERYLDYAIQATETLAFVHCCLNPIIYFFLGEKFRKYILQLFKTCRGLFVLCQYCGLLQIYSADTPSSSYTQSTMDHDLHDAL
Method: (§1) Studies were performed at Eurofins DiscoverX Corporation (Fremont, CA) using the GPCRmax assay according to the manufacturer’s protocols. […] Activity greater than 30% typically indicates agonist activity and inhibition greater than 50% indicates antagonist activity. This assay uses enzyme fragment complementation with […] as the functional reporter. When a GPCR is activated, […] is recruited and the reporter is detectable. GPCRmax offers a high-throughput screen of 168 GPCRs for agonist or antagonist activity. Briefly, PathHunter cell lines were propagated, seeded into 384-well microplates and incubated at 37°C. […] Microplates were read following signal generation with a PerkinElmer Envision™ instrument for chemiluminescent signal detection. Compound activity was analyzed using CBIS data analysis suite (ChemInnovation, CA) to determine raw values (RLU). For agonist mode assay, percentage activity was calculated using the following formula: % Activity =100% × (mean RLU of test sample - mean RLU of vehicle control) / (mean MAX control ligand - mean RLU of vehicle control). For antagonist mode assay, percentage inhibition was calculated using the following formula: % Inhibition =100% × (1 - (mean RLU of test sample - mean RLU of vehicle control) / (mean RLU of EC80 control - mean RLU of vehicle control)).

168 GPCRs [2] = target: T2, 168 GPCRs (Homo sapiens, UniProt P23945); settings: FSHR
T2 construct: host or cells: PathHunter cell lines
T2 sequence (P23945 18-695): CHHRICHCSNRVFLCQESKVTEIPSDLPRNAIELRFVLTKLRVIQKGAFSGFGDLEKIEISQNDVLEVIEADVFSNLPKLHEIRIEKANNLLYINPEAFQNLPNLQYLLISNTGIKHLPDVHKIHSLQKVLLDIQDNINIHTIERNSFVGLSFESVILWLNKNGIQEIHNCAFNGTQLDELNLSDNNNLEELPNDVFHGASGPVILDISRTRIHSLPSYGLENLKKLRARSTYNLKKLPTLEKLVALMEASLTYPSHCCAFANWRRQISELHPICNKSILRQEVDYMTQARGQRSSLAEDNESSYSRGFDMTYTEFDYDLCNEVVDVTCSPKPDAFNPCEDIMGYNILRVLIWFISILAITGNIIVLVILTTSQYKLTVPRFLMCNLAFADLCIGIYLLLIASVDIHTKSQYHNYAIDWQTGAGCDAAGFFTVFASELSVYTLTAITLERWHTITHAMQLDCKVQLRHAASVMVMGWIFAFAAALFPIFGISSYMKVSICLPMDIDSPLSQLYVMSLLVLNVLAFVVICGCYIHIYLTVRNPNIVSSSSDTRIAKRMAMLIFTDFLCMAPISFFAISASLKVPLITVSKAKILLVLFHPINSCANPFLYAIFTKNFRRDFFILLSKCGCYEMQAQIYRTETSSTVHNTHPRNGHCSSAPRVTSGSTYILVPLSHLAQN
Method: as §1

168 GPCRs [3] = target: T3, 168 GPCRs (Homo sapiens, UniProt Q8NFJ6); settings: PROKR2
T3 construct: host or cells: PathHunter cell lines
Method: as §1

168 GPCRs [4] = target: T4, 168 GPCRs (Homo sapiens, UniProt P41597)
T4 construct: host or cells: PathHunter cell lines
Method: as §1

168 GPCRs [5] = target: T5, 168 GPCRs (Homo sapiens, UniProt P47900); settings: P2RY1
T5 construct: host or cells: PathHunter cell lines
Method: as §1

168 GPCRs [6] = target: T6, 168 GPCRs (Homo sapiens, UniProt P34972)
T6 construct: host or cells: PathHunter cell lines
Method: as §1

168 GPCRs [7] = target: T7, 168 GPCRs (Homo sapiens, UniProt P18089); settings: ADRA2B
T7 construct: host or cells: PathHunter cell lines
T7 sequence (P18089 1-450): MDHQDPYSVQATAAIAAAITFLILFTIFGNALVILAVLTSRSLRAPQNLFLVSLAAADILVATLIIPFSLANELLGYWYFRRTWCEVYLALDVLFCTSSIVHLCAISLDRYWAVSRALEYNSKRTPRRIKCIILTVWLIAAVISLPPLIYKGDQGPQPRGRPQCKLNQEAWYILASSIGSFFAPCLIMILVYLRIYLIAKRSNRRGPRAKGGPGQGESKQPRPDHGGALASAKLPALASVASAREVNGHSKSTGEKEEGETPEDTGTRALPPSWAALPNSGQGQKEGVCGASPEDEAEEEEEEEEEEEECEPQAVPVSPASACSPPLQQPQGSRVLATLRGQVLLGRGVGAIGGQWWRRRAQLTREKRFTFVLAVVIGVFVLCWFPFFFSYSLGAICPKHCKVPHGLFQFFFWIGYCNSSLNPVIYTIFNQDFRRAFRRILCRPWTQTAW
Method: as §1

T3 sequence (Q8NFJ6 whole entry): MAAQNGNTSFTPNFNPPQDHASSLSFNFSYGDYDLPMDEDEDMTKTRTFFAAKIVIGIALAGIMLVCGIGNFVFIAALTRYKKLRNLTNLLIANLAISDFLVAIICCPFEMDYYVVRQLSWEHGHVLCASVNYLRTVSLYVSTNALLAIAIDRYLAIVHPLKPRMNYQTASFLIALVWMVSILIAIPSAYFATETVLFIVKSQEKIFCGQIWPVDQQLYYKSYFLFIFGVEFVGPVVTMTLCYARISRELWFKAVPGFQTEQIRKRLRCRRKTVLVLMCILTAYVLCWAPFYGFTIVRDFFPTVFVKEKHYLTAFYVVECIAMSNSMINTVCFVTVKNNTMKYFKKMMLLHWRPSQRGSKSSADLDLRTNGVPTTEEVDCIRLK
T5 sequence (P47900 whole entry): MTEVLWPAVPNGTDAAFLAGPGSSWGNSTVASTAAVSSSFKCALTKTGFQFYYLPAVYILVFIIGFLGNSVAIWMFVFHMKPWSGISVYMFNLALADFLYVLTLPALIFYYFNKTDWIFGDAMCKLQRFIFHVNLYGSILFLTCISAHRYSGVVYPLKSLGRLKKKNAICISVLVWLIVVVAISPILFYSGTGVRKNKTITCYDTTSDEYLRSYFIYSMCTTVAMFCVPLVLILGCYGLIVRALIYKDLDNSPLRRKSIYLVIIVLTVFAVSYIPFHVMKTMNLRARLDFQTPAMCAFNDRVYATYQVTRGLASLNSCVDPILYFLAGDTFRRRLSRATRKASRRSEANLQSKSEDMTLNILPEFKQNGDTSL
T6 sequence (P34972 whole entry): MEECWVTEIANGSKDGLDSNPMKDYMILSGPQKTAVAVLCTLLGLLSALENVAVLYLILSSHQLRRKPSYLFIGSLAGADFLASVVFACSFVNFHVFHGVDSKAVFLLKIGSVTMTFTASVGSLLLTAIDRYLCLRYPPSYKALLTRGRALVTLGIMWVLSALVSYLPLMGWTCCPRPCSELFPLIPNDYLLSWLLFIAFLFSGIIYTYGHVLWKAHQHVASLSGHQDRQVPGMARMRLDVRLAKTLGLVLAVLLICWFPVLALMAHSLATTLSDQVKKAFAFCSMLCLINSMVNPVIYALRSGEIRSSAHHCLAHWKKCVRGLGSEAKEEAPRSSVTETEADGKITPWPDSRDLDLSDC
T4 sequence (P41597 whole entry): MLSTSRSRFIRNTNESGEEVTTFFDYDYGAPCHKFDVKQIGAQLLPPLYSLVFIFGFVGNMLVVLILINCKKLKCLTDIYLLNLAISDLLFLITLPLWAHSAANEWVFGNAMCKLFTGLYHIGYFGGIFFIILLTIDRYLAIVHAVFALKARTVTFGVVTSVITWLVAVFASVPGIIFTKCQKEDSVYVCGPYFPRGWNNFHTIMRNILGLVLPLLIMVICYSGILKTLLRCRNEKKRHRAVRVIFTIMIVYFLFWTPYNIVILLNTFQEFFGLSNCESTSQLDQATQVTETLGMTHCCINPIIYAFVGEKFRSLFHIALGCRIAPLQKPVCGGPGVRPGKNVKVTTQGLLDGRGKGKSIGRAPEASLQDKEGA

Compound	% Agonist Activity (168 GPCRs [1]; CCR4, 1 uM)	% Antagonist Activity (168 GPCRs [1]; CCR4, 1 uM)	% Agonist Activity (168 GPCRs [1]; CCR4, 10 uM)	% Antagonist Activity (168 GPCRs [1]; CCR4, 10 uM)	% Agonist Activity (168 GPCRs [2]; 1 uM)	% Antagonist Activity (168 GPCRs [2]; 1 uM)	% Agonist Activity (168 GPCRs [2]; 10 uM)	% Antagonist Activity (168 GPCRs [2]; 10 uM)	% Agonist Activity (168 GPCRs [3]; Conc 1 uM)	% Antagonist Activity (168 GPCRs [3]; Conc 1 uM)	% Agonist Activity (168 GPCRs [3]; Conc 10 uM)	% Antagonist Activity (168 GPCRs [3]; Conc 10 uM)	% Agonist Activity (168 GPCRs [4]; CCR2, 1 uM)	% Antagonist Activity (168 GPCRs [4]; CCR2, 1 uM)	% Agonist Activity (168 GPCRs [4]; CCR2, 10 uM)	% Antagonist Activity (168 GPCRs [4]; CCR2, 10 uM)	% Agonist Activity (168 GPCRs [5]; Conc 1 uM)	% Antagonist Activity (168 GPCRs [5]; Conc 1 uM)	% Agonist Activity (168 GPCRs [5]; Conc 10 uM)	% Antagonist Activity (168 GPCRs [5]; Conc 10 uM)	further results
CNC(C)C(=O)c1ccc2c(c1)OCO2 (centres unmarked) [methylone]	-0.5%	10%	-1.4%	9.5%	-1%	-11.8%	-2.2%	-8.4%	-0.6%	2%	-0.6%	-6.8%	-0.4%	2%	-0.5%	4.9%	2.2%	14.5%	-4.1%	14.9%	% Agonist Activity (168 GPCRs [6]; CNR2, 1 uM): 7%; % Antagonist Activity (168 GPCRs [6]; CNR2, 1 uM): 3.6%; % Agonist Activity (168 GPCRs [6]; CNR2, 10 uM): 3.2%; % Antagonist Activity (168 GPCRs [6]; CNR2, 10 uM): -3.2%; % Agonist Activity (168 GPCRs [7]; 1 uM): -1%; % Antagonist Activity (168 GPCRs [7]; 1 uM): 8.5%; % Agonist Activity (168 GPCRs [7]; 10 uM): 1.3%; % Antagonist Activity (168 GPCRs [7]; 10 uM): 6.3%
CNC(C)Cc1ccc2c(c1)OCO2 (centres unmarked) [MDMA, 3,4-Methylenedioxy methamphetamine, reference compound]	0.1%	7.7%	0.1%	13%	0.7%	3.2%	-0.1%	-5.8%	-0.6%	14.4%	-0.3%	19.4%	0.5%	9.2%	0.7%	11.1%	0.3%	2.8%	-0.8%	1.2%	% Agonist Activity (168 GPCRs [6]; CNR2, 1 uM): 0.1%; % Antagonist Activity (168 GPCRs [6]; CNR2, 1 uM): 8.9%; % Agonist Activity (168 GPCRs [6]; CNR2, 10 uM): -6.8%; % Antagonist Activity (168 GPCRs [6]; CNR2, 10 uM): 7.8%; % Agonist Activity (168 GPCRs [7]; 1 uM): 5.2%; % Antagonist Activity (168 GPCRs [7]; 1 uM): 12.8%; % Agonist Activity (168 GPCRs [7]; 10 uM): 1.3%; % Antagonist Activity (168 GPCRs [7]; 10 uM): 2.9%
